# Assay results reported in US10907197B2, “Probes for imaging huntingtin protein” (CHDI Foundation, Inc., priority 2014, dated 2021).
# pIC50: −log10 of the molar value.
# Target: T1, Q46 protein aggregates (Homo sapiens, UniProt P42858, INS38QQQQQQQQQQQQQQQQQQQQQQQQQ)
# T1 construct: 33 μM GST-Q46 was incubated with 150 μg/mL thrombin in assay buffer (150 mM NaCl, 50 mM Tris pH 8.0) and 2 mM CaCl2 for 16 hr at 37° C; fused on or other part: GST at the N-terminus
# Test: Q46 Radioligand Binding Assay (RBA)
# Settings: displacement of 10 nM [3H3]MK-3328 from 5 μM Q46 protein aggregates, 60 min at 37° C.
# Experimental: Q46 Radioligand Binding Assay
# For radioligand binding assays (RBA) GST-Q46 protein was generated based on a previous publication (Scherzinger et al. Cell, Vol. 90, 549-558, Aug. 8, 1997). For experiments 33 μM GST-Q46 was incubated with 150 μg/mL thrombin in assay buffer (150 mM NaCl, 50 mM Tris pH 8.0) and 2 mM CaCl2 for 16 hr at 37° C. Aggregated Q46 was pelleted by centrifugation for 5 min at 13,000 rpm in a bench top centrifuge and re-dissolved in the same volume of assay buffer. Test compounds were prepared by titration in DMSO at 11 concentrations from 33 μM to 1 nM. For the RBA, Q46 protein aggregates and test compounds were pre-incubated in assay buffer for 20 min at room temperature, in 140 μL/well in a 96-well plate (pp, round bottom). Then, ligand was added in 10 μL/well and incubated for 60 min at 37° C. Final assay concentrations were 1 μM to 30 pM test compound, 5 μM Q46 protein (equivalent monomer concentration) and 10 nM ligand [^3H3]MK-3328 (Harrision et al., ACS Med. Chem. Lett., 2 (2011), pp 498-502). Samples were transferred onto GF/B filter plates and washed 2× with 200 μL PBS using a Filtermate Harvester. After drying filter plates for 1 hr at 37° C., the back of the plates was sealed with foil and 30 μL/well scintillation fluid (Packard MicroScint 40) was added, incubated for incubated for 15 min in the dark and counted in a TopCount reader. […] IC50 values were determined with a sigmoidal inhibition model with four variables (top, bottom, slope, IC50) in a global fit using the normalized replicate data.
# T1 sequence (P42858 with tags, fused parts or gaps with the stated changes): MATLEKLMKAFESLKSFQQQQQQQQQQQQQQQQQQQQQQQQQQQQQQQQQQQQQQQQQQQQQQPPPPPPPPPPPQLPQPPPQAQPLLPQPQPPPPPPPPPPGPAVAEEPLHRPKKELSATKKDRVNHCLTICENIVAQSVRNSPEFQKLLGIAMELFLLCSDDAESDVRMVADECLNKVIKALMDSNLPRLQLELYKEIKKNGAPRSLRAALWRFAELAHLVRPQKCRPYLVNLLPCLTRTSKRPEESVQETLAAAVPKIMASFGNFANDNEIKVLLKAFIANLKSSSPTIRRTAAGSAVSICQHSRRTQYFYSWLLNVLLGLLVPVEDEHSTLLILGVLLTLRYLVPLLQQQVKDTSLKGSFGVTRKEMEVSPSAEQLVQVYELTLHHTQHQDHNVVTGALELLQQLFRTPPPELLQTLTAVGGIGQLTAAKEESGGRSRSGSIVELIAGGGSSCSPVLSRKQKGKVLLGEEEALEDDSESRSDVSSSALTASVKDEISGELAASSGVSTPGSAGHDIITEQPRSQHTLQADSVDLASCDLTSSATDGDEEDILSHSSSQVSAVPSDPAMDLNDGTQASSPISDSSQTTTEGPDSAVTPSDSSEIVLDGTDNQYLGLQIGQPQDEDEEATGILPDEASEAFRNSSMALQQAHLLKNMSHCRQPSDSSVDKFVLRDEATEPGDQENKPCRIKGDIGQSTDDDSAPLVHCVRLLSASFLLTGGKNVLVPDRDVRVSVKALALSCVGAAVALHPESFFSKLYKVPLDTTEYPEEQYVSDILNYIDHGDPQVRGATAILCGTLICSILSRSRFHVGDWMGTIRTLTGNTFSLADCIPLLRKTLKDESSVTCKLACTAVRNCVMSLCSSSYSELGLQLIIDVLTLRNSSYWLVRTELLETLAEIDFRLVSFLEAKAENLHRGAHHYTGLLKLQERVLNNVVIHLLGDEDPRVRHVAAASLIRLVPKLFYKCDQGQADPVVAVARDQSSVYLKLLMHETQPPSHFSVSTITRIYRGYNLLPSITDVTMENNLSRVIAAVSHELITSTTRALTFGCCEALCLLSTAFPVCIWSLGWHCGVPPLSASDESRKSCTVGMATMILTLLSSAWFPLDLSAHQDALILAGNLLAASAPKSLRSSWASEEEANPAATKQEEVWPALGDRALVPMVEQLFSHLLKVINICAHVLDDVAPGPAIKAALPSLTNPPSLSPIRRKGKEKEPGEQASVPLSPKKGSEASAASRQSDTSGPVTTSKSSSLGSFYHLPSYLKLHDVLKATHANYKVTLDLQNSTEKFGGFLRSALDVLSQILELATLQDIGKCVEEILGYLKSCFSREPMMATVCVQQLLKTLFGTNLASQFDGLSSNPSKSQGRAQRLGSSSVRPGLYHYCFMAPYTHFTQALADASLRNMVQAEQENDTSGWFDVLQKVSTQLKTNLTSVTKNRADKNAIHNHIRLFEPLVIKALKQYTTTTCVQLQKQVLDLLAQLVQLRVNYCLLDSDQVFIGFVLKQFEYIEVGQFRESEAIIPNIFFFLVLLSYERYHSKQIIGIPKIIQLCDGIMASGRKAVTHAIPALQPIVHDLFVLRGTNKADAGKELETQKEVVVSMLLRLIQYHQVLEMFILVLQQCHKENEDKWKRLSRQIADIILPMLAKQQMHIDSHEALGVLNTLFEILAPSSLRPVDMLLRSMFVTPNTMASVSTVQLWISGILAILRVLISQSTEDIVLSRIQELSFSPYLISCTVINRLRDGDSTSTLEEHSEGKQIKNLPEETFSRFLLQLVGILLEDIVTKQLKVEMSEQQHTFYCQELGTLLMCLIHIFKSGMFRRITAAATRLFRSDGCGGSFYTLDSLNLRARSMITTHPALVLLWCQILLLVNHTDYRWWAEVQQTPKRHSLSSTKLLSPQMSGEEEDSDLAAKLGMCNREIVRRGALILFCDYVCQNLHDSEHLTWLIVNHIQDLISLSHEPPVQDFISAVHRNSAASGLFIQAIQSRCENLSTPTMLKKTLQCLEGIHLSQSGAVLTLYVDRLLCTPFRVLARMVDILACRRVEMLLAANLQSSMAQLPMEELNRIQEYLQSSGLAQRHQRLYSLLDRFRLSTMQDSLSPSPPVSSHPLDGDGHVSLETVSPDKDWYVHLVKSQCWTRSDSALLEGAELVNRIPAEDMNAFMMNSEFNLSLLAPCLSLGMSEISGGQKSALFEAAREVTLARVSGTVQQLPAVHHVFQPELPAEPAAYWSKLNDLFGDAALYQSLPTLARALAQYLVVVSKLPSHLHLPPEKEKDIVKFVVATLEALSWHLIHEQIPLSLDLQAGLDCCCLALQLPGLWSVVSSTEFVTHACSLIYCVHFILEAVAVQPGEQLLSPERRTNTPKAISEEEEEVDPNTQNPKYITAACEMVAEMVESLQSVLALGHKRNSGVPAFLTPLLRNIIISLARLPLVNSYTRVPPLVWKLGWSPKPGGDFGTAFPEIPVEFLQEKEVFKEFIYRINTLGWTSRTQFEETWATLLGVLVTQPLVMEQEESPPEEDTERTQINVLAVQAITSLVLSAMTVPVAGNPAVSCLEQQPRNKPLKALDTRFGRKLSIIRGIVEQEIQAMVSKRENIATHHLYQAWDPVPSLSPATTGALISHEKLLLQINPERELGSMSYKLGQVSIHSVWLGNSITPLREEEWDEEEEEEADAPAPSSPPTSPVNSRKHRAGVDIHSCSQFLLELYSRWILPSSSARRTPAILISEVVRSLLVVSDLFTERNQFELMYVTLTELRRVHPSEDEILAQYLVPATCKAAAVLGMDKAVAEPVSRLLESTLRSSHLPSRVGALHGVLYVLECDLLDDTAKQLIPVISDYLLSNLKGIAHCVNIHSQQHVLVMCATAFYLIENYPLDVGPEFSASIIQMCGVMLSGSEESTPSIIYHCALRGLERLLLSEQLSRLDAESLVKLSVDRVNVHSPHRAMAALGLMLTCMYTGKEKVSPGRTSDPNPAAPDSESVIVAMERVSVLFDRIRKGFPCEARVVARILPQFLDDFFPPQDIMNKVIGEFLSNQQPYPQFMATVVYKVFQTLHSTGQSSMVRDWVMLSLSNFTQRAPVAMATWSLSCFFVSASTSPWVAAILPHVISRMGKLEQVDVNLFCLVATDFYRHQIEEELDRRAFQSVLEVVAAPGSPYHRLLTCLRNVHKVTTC
row,Structure (SMILES),pIC50
1,"COc1ccc2nc(-c3ncccc3Br)sc2c1 [2-(3-bromopyridin-2-yl)-6-methoxy-1,3-benzothiazole]",> 7.00
2,"Oc1ccc2nc(-c3ccncc3Br)sc2c1 [2-(3-bromopyridin-4-yl)-1,3-benzothiazol-6-ol]",6.30 to 7.00
3,"FCCOc1ccc2nc(-c3ccncc3Br)sc2c1 [2-(3-bromopyridin-4-yl)-6-(2-fluoroethoxy)-1,3-benzothiazole]",> 7.00
4,"COc1ccc2nc(-c3ccncc3Br)sc2c1 [2-(3-bromopyridin-4-yl)-6-methoxy-1,3-benzothiazole]",> 7.00
5,"COc1ccc2nc(-c3ccncc3F)sc2c1 [2-(3-fluoropyridin-4-yl)-6-methoxy-1,3-benzothiazole]",> 7.00
6,"Cc1cccc(-c2nc3cc(N)ccc3o2)c1 [2-(3-methylphenyl)-1,3-benzoxazol-5-amine]",6.30 to 7.00
7,"Cc1cccc(-c2nc3cc(N)cnc3o2)c1 [2-(3-methylphenyl)-[1,3]oxazolo[5,4-b]pyridin-6-amine]",< 6.30
8,COc1ccc2oc(-c3ncccc3C#N)cc2c1 [2-(5-methoxy-1-benzofuran-2-yl)pyridine-3-carbonitrile],> 7.00
9,"COc1ccc2nc(-c3ccccc3C#N)sc2c1 [2-(6-methoxy-1,3-benzothiazol-2-yl)benzonitrile]",> 7.00
10,"COc1ccc2nc(-c3ncccc3C#N)sc2c1 [2-(6-methoxy-1,3-benzothiazol-2-yl)pyridine-3-carbonitrile]",> 7.00
11,"COc1ccc2nc(-c3ccccc3C#N)oc2c1 [2-(6-methoxy-1,3-benzoxazol-2-yl)benzonitrile]",> 7.00
12,"Nc1ccc2oc(-c3cccnc3)nc2c1 [2-(pyridin-3-yl)-1,3-benzoxazol-5-amine]",< 6.30
13,COc1ccc2oc(-c3cccc(CN(C)C)c3C#N)cc2c1 [2-[(dimethylamino)methyl]-6-(5-methoxy-1-benzofuran-2-yl)benzonitrile],6.30 to 7.00
14,COc1ccc2oc(-c3cccc(Br)c3C#N)cc2c1 [2-bromo-6-(5-methoxy-1-benzofuran-2-yl)benzonitrile],> 7.00
15,"COc1ncc2cc(-c3ccccc3C#N)oc2n1 [2-{2-methoxyfuro[2,3-d]pyrimidin-6-yl}benzonitrile]",> 7.00
16,"N#Cc1ccccc1-c1nc2cc3c(cc2o1)OCO3 [2-{4,6,10-trioxa-12-azatricyclo[7.3.0.0^3,^7]dodeca-1(9),2,7,11-tetraen-11-yl}benzonitrile]",> 7.00

row,Structure (SMILES),pIC50
1,"N#Cc1ccccc1-c1cc2cc(Br)cnc2o1 [2-{5-bromofuro[2,3-b]pyridin-2-yl}benzonitrile]",> 7.00
2,"COc1cnc2oc(-c3ccccc3C#N)cc2c1 [2-{5-methoxyfuro[2,3-b]pyridin-2-yl}benzonitrile]",> 7.00
3,"COc1cc2cc(-c3ccccc3C#N)oc2cn1 [2-{5-methoxyfuro[2,3-c]pyridin-2-yl}benzonitrile]",> 7.00
4,"N#CC1=C(c2cc3cc(O)ccc3o2)N2CCN=C2S1 [3-(5-hydroxy-1-benzofuran-2-yl)-5H,6H-imidazo[2,1-b][1,3]thiazole-2-carbonitrile]",> 7.00
5,"COc1ccc2oc(C3=C(C#N)SC4=NCCN43)cc2c1 [3-(5-methoxy-1-benzofuran-2-yl)-5H,6H-imidazo[2,1-b][1,3]thiazole-2-carbonitrile]",> 7.00
6,"COc1ccc2nc(-c3cnccc3C#N)sc2c1 [3-(6-methoxy-1,3-benzothiazol-2-yl)pyridine-4-carbonitrile]",> 7.00
7,C#Cc1cnccc1-c1cc2cc(OC)ccc2o1 [3-ethynyl-4-(5-methoxy-1-benzofuran-2-yl)pyridine],> 7.00
8,COc1ccc2oc(-c3ccncc3I)cc2c1 [3-iodo-4-(5-methoxy-1-benzofuran-2-yl)pyridine],6.30 to 7.00
9,"N#Cc1cnccc1-c1nc2ccccc2s1 [4-(1,3-benzothiazol-2-yl)pyridine-3-carbonitrile]",< 6.30
10,COc1ccc2oc(-c3ccncc3)c(Br)c2c1 [4-(3-bromo-5-methoxy-1-benzofuran-2-yl)pyridine],> 7.00
11,N#Cc1cnccc1-c1cc2cc(O)ccc2o1 [4-(5-hydroxy-1-benzofuran-2-yl)pyridine-3-carbonitrile],> 7.00
12,"COc1ccc2sc(-c3ccncc3C#N)nc2c1 [4-(5-methoxy-1,3-benzothiazol-2-yl)pyridine-3-carbonitrile]",6.30 to 7.00
13,COc1ccc2oc(-c3cccc4[nH]ncc34)cc2c1 [4-(5-methoxy-1-benzofuran-2-yl)-1H-indazole],> 7.00
14,COc1ccc2oc(-c3ccncc3C)cc2c1 [4-(5-methoxy-1-benzofuran-2-yl)-3-methylpyridine],6.30 to 7.00
15,COc1ccc2oc(-c3ccncc3C#N)cc2c1 [4-(5-methoxy-1-benzofuran-2-yl)pyridine-3-carbonitrile],> 7.00
16,COc1ccc2oc(-c3ccncc3C#N)c(C)c2c1 [4-(5-methoxy-3-methyl-1-benzofuran-2-yl)pyridine-3-carbonitrile],> 7.00

# Now from value to compound:
row,pIC50,Structure (SMILES)
1,6.30 to 7.00,"CNc1cnccc1-c1nc2ccc(OC)cc2s1 [4-(6-methoxy-1,3-benzothiazol-2-yl)-N-methylpyridin-3-amine]"
2,> 7.00,"COc1ccc2nc(-c3ccc(C#N)cc3)sc2c1 [4-(6-methoxy-1,3-benzothiazol-2-yl)benzonitrile]"
3,> 7.00,"COc1ccc2nc(-c3ccnc(C#N)c3)sc2c1 [4-(6-methoxy-1,3-benzothiazol-2-yl)pyridine-2-carbonitrile]"
4,6.30 to 7.00,"COc1ccc2nc(-c3ccncc3C#N)sc2c1 [4-(6-methoxy-1,3-benzothiazol-2-yl)pyridine-3-carbonitrile]"
5,> 7.00,"COc1ccc2nc(-c3ccncc3C#N)oc2c1 [4-(6-methoxy-1,3-benzoxazol-2-yl)pyridine-3-carbonitrile]"
6,< 6.30,"COc1ccc2nc(-c3ccncc3C#N)[nH]c2c1 [4-(6-methoxy-1H-1,3-benzodiazol-2-yl)pyridine-3-carbonitrile]"
7,6.30 to 7.00,COc1ccc2cc(-c3ccncc3C#N)ccc2c1 [4-(6-methoxynaphthalen-2-yl)pyridine-3-carbonitrile]
8,6.30 to 7.00,COc1ccc2nc(-c3ccncc3C#N)ccc2c1 [4-(6-methoxyquinolin-2-yl)pyridine-3-carbonitrile]
9,> 7.00,N#Cc1cnccc1-c1cc2cc(OCCF)ccc2o1 [4-[5-(2-fluoroethoxy)-1-benzofuran-2-yl]pyridine-3-carbonitrile]
10,6.30 to 7.00,N#Cc1cnccc1-c1cc2cc(OCCO)ccc2o1 [4-[5-(2-hydroxyethoxy)-1-benzofuran-2-yl]pyridine-3-carbonitrile]
11,> 7.00,COCCOc1ccc2oc(-c3ccncc3C#N)cc2c1 [4-[5-(2-methoxyethoxy)-1-benzofuran-2-yl]pyridine-3-carbonitrile]
12,> 7.00,COCOc1ccc2oc(-c3cn(C)nc3C#N)cc2c1 [4-[5-(methoxymethoxy)-1-benzofuran-2-yl]-1-methyl-1H-pyrazole-3-carbonitrile]
13,> 7.00,COCOc1ccc2oc(-c3ccncc3C#N)cc2c1 [4-[5-(methoxymethoxy)-1-benzofuran-2-yl]pyridine-3-carbonitrile]
14,> 7.00,"N#Cc1cnccc1-c1nc2ccc(OCCF)cc2s1 [4-[6-(2-fluoroethoxy)-1,3-benzothiazol-2-yl]pyridine-3-carbonitrile]"
15,> 7.00,"CN(C)c1ccc2nc(-c3ccncc3C#N)sc2c1 [4-[6-(dimethylamino)-1,3-benzothiazol-2-yl]pyridine-3-carbonitrile]"
16,> 7.00,"N#Cc1cnccc1-c1nc2ccc(C(F)(F)F)cc2s1 [4-[6-(trifluoromethyl)-1,3-benzothiazol-2-yl]pyridine-3-carbonitrile]"
17,> 7.00,COc1ccc2oc(-c3cc(CN(C)C)ccc3C#N)cc2c1 [4-[(dimethylamino)methyl]-2-(5-methoxy-1-benzofuran-2-yl)benzonitrile]
18,< 6.30,COc1ccc2oc(-c3ncnc(I)c3C#N)cc2c1 [4-iodo-6-(5-methoxy-1-benzofuran-2-yl)pyrimidine-5-carbonitrile]
19,> 7.00,CN(CCO)c1ccc2oc(-c3ccncc3C#N)cc2c1 [4-{5-[(2-hydroxyethyl)(methyl)amino]-1-benzofuran-2-yl}pyridine-3-carbonitrile]
20,> 7.00,"COc1cc2cc(-c3ccncc3C#N)oc2cn1 [4-{5-methoxyfuro[2,3-c]pyridin-2-yl}pyridine-3-carbonitrile]"
21,> 7.00,"COc1cnc2cc(-c3ccncc3C#N)oc2c1 [4-{6-methoxyfuro[3,2-b]pyridin-2-yl}pyridine-3-carbonitrile]"
22,> 7.00,COc1ccc2oc(-c3ccc(Br)cc3C#N)cc2c1 [5-bromo-2-(5-methoxy-1-benzofuran-2-yl)benzonitrile]
23,> 7.00,"O=c1[nH]cc(Br)cc1-c1cc2cc(Br)cnc2o1 [5-bromo-3-{5-bromofuro[2,3-b]pyridin-2-yl}-1,2-dihydropyridin-2-one]"
